# Source: ChEMBL document CHEMBL1201862, “PubChem BioAssay data set” (2004)
#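 48-hour exposure; five concentrations; linearly interpolated endpoints. GI50: concentration for 50% inhibition of growth.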 Active and inactive are the calls of the source. Cut-off read from the data, not from the text of the source: active = GI50 up to about 1.1 µM and inactive = higher.
# Tests used:
# Experiment in all cases: NCI anticancer screen, dose series, 48 h
# NCI-H226 = system: NCI-H226
# HL-60 = system: HL-60
# HOP-92 = system: HOP-92
# K562 = system: K562
# UO-31 = system: UO-31
# SNB-78 = system: SNB-78
# SF-295 = system: SF-295
# LOX IMVI = system: LOX IMVI
# LXFL 529 = system: LXFL 529
# NCI-H23 = system: NCI-H23
# UACC-257 = system: UACC-257
# M14 = system: M14
# HCT-15 = system: HCT-15
# HCC 2998 = system: HCC 2998
# RXF 393 = system: RXF 393
# M19-MEL = system: M19-MEL
# SNB-75 = system: SNB-75
# CAKI-1 = system: CAKI-1
# IGROV-1 = system: IGROV-1
# SK-MEL-2 = system: SK-MEL-2
# SK-MEL-28 = system: SK-MEL-28
# SF-539 = system: SF-539
# SF-268 = system: SF-268
# SNB-19 = system: SNB-19
# Malme-3M = system: Malme-3M
# UACC-62 = system: UACC-62
# OVCAR-5 = system: OVCAR-5
# HOP-18 = system: HOP-18
# A549 = system: A549
# SW-620 = system: SW-620
# KM12 = system: KM12
# NCI-H522 = system: NCI-H522
# HCT-116 = system: HCT-116
# DMS-114 = system: DMS-114
# RPMI-8226 = system: RPMI-8226
# A498 = system: A498
# ACHN = system: ACHN
# NCI-H460 = system: NCI-H460
# DMS-273 = system: DMS-273
# KM-20L2 = system: KM-20L2
# 786-0 = system: 786-0
# OVCAR-8 = system: OVCAR-8
# CCRF-CEM = system: CCRF-CEM
# EKVX = system: EKVX
# TK-10 = system: TK-10
# OVCAR-3 = system: OVCAR-3
# DLD-1 = system: DLD-1
# U-251 = system: U-251
# XF498 = system: XF498
# SK-MEL-5 = system: SK-MEL-5
# OVCAR-4 = system: OVCAR-4
# COLO 205 = system: COLO 205
# HT-29 = system: HT-29
# HOP-62 = system: HOP-62
# SK-OV-3 = system: SK-OV-3
# MCF7 = system: MCF7
# MOLT-4 = system: MOLT-4
# Hs-578T = system: Hs-578T
# T47D = system: T47D
# DU-145 = system: DU-145
# MDA-N = system: MDA-N
# NCI/ADR-RES = system: NCI/ADR-RES
# MDA-MB-435 = system: MDA-MB-435
# SN12C = system: SN12C
# MDA-MB-231 = system: MDA-MB-231
# BT-549 = system: BT-549
# PC-3 = system: PC-3
# SR = system: SR
smiles,measurement,setting,value
Cc1c(CCO)c(O)n2c(nc3ccccc32)c1C#N,GI50,NCI-H226,98.4 µM (inactive)
same,GI50,HL-60,10 µM (inactive)
same,GI50,HOP-92,33.1 µM (inactive)
same,GI50,K562,99.5 µM (inactive)
same,GI50,UO-31,65.8 µM (inactive)
same,GI50,SNB-78,61 µM (inactive)
same,GI50,SF-295,> 100 µM (inactive)
same,GI50,LOX IMVI,68.7 µM (inactive)
same,GI50,LXFL 529,36.6 µM (inactive)
same,GI50,NCI-H23,53.8 µM (inactive)
same,GI50,UACC-257,> 100 µM (inactive)
same,GI50,M14,84.1 µM (inactive)
same,GI50,HCT-15,45.7 µM
same,GI50,HCC 2998,> 100 µM (inactive)
same,GI50,RXF 393,> 100 µM (inactive)
same,GI50,M19-MEL,> 100 µM (inactive)
same,GI50,SNB-75,> 100 µM (inactive)
same,GI50,CAKI-1,59 µM (inactive)
same,GI50,IGROV-1,68.4 µM (inactive)
same,GI50,SK-MEL-2,91.6 µM (inactive)
same,GI50,SK-MEL-28,> 100 µM (inactive)
same,GI50,SF-539,> 100 µM (inactive)
same,GI50,SF-268,> 100 µM (inactive)
same,GI50,SNB-19,30.3 µM (inactive)
same,GI50,Malme-3M,> 100 µM (inactive)
same,GI50,UACC-62,> 100 µM (inactive)
same,GI50,OVCAR-5,> 100 µM (inactive)
same,GI50,HOP-18,47.5 µM (inactive)
same,GI50,A549,> 100 µM (inactive)
same,GI50,SW-620,54.1 µM (inactive)
same,GI50,KM12,> 100 µM (inactive)
same,GI50,NCI-H522,34.7 µM (inactive)
same,GI50,HCT-116,41.3 µM (inactive)
same,GI50,DMS-114,44.5 µM (inactive)
same,GI50,RPMI-8226,26.7 µM (inactive)
same,GI50,A498,> 100 µM (inactive)
same,GI50,ACHN,> 100 µM (inactive)
same,GI50,NCI-H460,26.7 µM (inactive)
same,GI50,DMS-273,63.2 µM (inactive)
same,GI50,KM-20L2,66.5 µM (inactive)
same,GI50,786-0,66.4 µM (inactive)
same,GI50,OVCAR-8,83.9 µM (inactive)
same,GI50,CCRF-CEM,29.4 µM (inactive)
same,GI50,EKVX,> 100 µM (inactive)
same,GI50,TK-10,> 100 µM (inactive)
same,GI50,OVCAR-3,92.5 µM (inactive)
same,GI50,DLD-1,> 100 µM (inactive)
same,GI50,U-251,46.1 µM (inactive)
same,GI50,XF498,> 100 µM (inactive)
same,GI50,SK-MEL-5,21.8 µM (inactive)
same,GI50,OVCAR-4,39.4 µM (inactive)
same,GI50,COLO 205,> 100 µM (inactive)
same,GI50,HT-29,44.3 µM (inactive)
same,GI50,HOP-62,> 100 µM (inactive)
same,GI50,SK-OV-3,> 100 µM (inactive)
CCN(CC)CCCNc1ncc(C)c2c1c1ccc3c(O)cccc3c1n2C,GI50,NCI-H226,3.44 µM (inactive)
same,GI50,HL-60,0.603 µM (active)
same,GI50,HOP-92,9.16 µM (inactive)
same,GI50,K562,1.5 µM (inactive)
same,GI50,MCF7,0.191 µM (active)
same,GI50,UO-31,7.89 µM (inactive)
same,GI50,SNB-78,14.2 µM (inactive)
same,GI50,SF-295,1.73 µM (inactive)
same,GI50,LOX IMVI,1.29 µM (inactive)
same,GI50,LXFL 529,1.61 µM (inactive)
same,GI50,NCI-H23,1.8 µM (inactive)
same,GI50,UACC-257,16.3 µM (inactive)
same,GI50,M14,4.15 µM (inactive)
same,GI50,HCT-15,2.74 µM
same,GI50,HCC 2998,0.798 µM (active)
same,GI50,RXF 393,1.95 µM (inactive)
same,GI50,MOLT-4,0.043 µM (active)
same,GI50,SNB-75,1.81 µM (inactive)
same,GI50,CAKI-1,0.449 µM (active)
same,GI50,IGROV-1,1.96 µM (inactive)
same,GI50,SK-MEL-2,12.2 µM (inactive)
same,GI50,SK-MEL-28,9.82 µM (inactive)
same,GI50,Hs-578T,1.68 µM (inactive)
same,GI50,T47D,17.9 µM (inactive)
same,GI50,SF-539,2.11 µM (inactive)
same,GI50,SF-268,2.5 µM (inactive)
same,GI50,SNB-19,1.07 µM (active)
same,GI50,Malme-3M,14.7 µM (inactive)
same,GI50,DU-145,1.57 µM (inactive)
same,GI50,UACC-62,18 µM (inactive)
same,GI50,OVCAR-5,5.57 µM (inactive)
same,GI50,HOP-18,0.635 µM (active)
same,GI50,A549,0.389 µM (active)
same,GI50,MDA-N,1.65 µM (inactive)
same,GI50,SW-620,0.883 µM (active)
same,GI50,KM12,1.52 µM (inactive)
same,GI50,NCI/ADR-RES,2.81 µM (inactive)
same,GI50,MDA-MB-435,8.07 µM (inactive)
same,GI50,NCI-H522,1.05 µM (active)
same,GI50,HCT-116,1.05 µM (active)
same,GI50,SN12C,2.7 µM (inactive)
same,GI50,DMS-114,1.39 µM (inactive)
same,GI50,RPMI-8226,1.47 µM (inactive)
same,GI50,A498,13.6 µM (inactive)
same,GI50,ACHN,1.8 µM (inactive)
same,GI50,NCI-H460,1.02 µM (active)
same,GI50,DMS-273,0.76 µM (active)
same,GI50,KM-20L2,3.07 µM (inactive)
same,GI50,MDA-MB-231,1.57 µM (inactive)
same,GI50,786-0,0.789 µM (active)
same,GI50,OVCAR-8,1.43 µM (inactive)
same,GI50,CCRF-CEM,0.392 µM (active)
same,GI50,BT-549,1.89 µM (inactive)
same,GI50,EKVX,3.02 µM (inactive)
same,GI50,TK-10,10.5 µM (inactive)
same,GI50,OVCAR-3,3.87 µM (inactive)
same,GI50,DLD-1,1.47 µM (inactive)
same,GI50,U-251,1.1 µM (active)
same,GI50,XF498,15.2 µM (inactive)
same,GI50,SK-MEL-5,6.76 µM (inactive)
same,GI50,OVCAR-4,1.66 µM (inactive)
same,GI50,COLO 205,5.52 µM (inactive)
same,GI50,HT-29,1.21 µM (inactive)
same,GI50,HOP-62,0.964 µM (active)
same,GI50,PC-3,0.687 µM (active)
same,GI50,SK-OV-3,4.9 µM (inactive)
same,GI50,SR,0.282 µM (active)
COS(=O)CCOC(=O)c1ccccc1SSc1ccccc1C(=O)OCCS(=O)OC (stereo not given),GI50,HOP-92,25.1 µM (inactive)
same,GI50,K562,20.6 µM (inactive)
same,GI50,UO-31,15.5 µM (inactive)
same,GI50,SNB-78,> 100 µM (inactive)
same,GI50,SF-295,33.2 µM (inactive)
same,GI50,LOX IMVI,22.2 µM (inactive)
same,GI50,LXFL 529,18.5 µM (inactive)
same,GI50,NCI-H23,20.2 µM (inactive)
same,GI50,UACC-257,15.6 µM (inactive)
same,GI50,M14,20 µM (inactive)
same,GI50,HCT-15,23.8 µM
same,GI50,RXF 393,14.2 µM (inactive)
same,GI50,MOLT-4,3.44 µM (inactive)
same,GI50,M19-MEL,21.2 µM (inactive)
same,GI50,SNB-75,6.31 µM (inactive)
same,GI50,CAKI-1,27.2 µM (inactive)
same,GI50,IGROV-1,> 100 µM (inactive)
same,GI50,SK-MEL-2,37.7 µM (inactive)
same,GI50,SK-MEL-28,30.7 µM (inactive)
same,GI50,SF-539,25.3 µM (inactive)
same,GI50,SF-268,32.3 µM (inactive)
same,GI50,SNB-19,> 100 µM (inactive)
same,GI50,Malme-3M,18.6 µM (inactive)
same,GI50,UACC-62,20.5 µM (inactive)
same,GI50,OVCAR-5,40.9 µM (inactive)
same,GI50,HOP-18,> 100 µM (inactive)
same,GI50,A549,> 100 µM (inactive)
same,GI50,SW-620,31 µM (inactive)
same,GI50,KM12,27.1 µM (inactive)
same,GI50,NCI-H522,4.78 µM (inactive)
same,GI50,SN12C,26.1 µM (inactive)
same,GI50,DMS-114,16 µM (inactive)
same,GI50,RPMI-8226,18.9 µM (inactive)
same,GI50,A498,> 100 µM (inactive)
same,GI50,ACHN,43.7 µM (inactive)
same,GI50,NCI-H460,> 100 µM (inactive)
same,GI50,DMS-273,26.4 µM (inactive)
same,GI50,KM-20L2,61 µM (inactive)
same,GI50,786-0,20.3 µM (inactive)
same,GI50,OVCAR-8,22.3 µM (inactive)
same,GI50,CCRF-CEM,3.79 µM (inactive)
same,GI50,EKVX,> 100 µM (inactive)
same,GI50,TK-10,81.8 µM (inactive)
same,GI50,OVCAR-3,22.1 µM (inactive)
same,GI50,DLD-1,34.5 µM (inactive)
same,GI50,U-251,69.7 µM (inactive)
same,GI50,XF498,29.8 µM (inactive)
same,GI50,SK-MEL-5,67 µM (inactive)
same,GI50,OVCAR-4,16.4 µM (inactive)
same,GI50,COLO 205,23.4 µM (inactive)
same,GI50,HT-29,14.1 µM (inactive)
same,GI50,HOP-62,> 100 µM (inactive)
same,GI50,SK-OV-3,> 100 µM (inactive)
